Holding throughout (test): 33PanQinase Activity Assay (in vitro protein kinase activity assay)
What all share (type): biochemical
Common to all, as to conditions: recombinant purified kinase, 1 µM [γ-33P]-ATP

For one assay, the target named is T1, FLT3 wt (Homo sapiens, UniProt P36888).
T1 construct: made in house; host or cells: Sf9 insect cells (baculovirus)
T1 sequence (P36888 27-993): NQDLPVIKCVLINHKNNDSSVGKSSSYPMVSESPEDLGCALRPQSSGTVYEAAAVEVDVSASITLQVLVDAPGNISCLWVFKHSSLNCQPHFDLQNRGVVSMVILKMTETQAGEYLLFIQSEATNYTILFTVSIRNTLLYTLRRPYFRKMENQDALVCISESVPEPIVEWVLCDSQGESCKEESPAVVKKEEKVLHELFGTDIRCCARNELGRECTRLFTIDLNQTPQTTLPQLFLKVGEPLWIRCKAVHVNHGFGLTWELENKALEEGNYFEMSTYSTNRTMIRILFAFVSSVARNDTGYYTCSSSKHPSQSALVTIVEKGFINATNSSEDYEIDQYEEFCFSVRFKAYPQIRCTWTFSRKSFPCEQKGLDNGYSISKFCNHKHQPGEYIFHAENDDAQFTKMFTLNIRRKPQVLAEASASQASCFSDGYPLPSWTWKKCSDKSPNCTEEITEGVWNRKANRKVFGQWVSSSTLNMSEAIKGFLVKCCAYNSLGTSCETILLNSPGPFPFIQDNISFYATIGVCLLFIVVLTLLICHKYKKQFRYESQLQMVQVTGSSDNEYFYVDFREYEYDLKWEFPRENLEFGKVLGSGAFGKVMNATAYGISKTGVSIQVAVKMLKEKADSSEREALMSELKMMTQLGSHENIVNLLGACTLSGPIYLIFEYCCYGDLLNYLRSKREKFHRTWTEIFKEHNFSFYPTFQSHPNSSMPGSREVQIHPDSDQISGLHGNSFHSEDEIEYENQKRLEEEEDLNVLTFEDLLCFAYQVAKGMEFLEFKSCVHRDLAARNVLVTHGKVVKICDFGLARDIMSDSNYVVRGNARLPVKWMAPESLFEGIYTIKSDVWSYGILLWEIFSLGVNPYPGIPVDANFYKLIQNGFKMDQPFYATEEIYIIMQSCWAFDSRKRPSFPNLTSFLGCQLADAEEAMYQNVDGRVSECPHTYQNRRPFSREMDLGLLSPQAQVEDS
The procedure:
(§1) Inhibition of protein kinases by compounds was measured in proprietary protein kinase activity assay (^33PanQinase® Activity Assay) using recombinant purified protein kinases. All protein kinases were expressed in Sf9 insect cells as recombinant GST-fusion proteins or His-tagged proteins by means of the baculovirus expression system. All kinases were produced from human cDNAs. Kinases were purified by affinity chromatography using either GSH-agarose (Sigma) or Ni-NTH-agarose (Qiagen). The purity of the protein kinases was examined by SDS-PAGE/Coomassie staining. Activity was measured by determination of the incorporation of radio labelled phosphate into a substrate. The reaction cocktails for all enzymes contained 60 mM HEPES-NaOH, 10 mM Tris/HCl, pH 7.5, 20 mM NaCl, 3 mM MgCl2, 3 mM MnCl2, 3 µM Na-orthovanadate, 2 mM DTT, 4% glycerol, 1 µM [γ-^33P]-ATP (approx. 6 x 10^5 cpm per well), protein kinase , and substrate. Table 1: Protein kinases inhibited with high potency in vitro by compound PQ-012, PQ-013, PQ-014, PQ-016, PQ-041, PQ-042.

A further assay has as its target T2, PRKG2 (Homo sapiens, UniProt Q13237).
T2 construct: made in house; host or cells: Sf9 insect cells (baculovirus)
T2 sequence (Q13237 1-762): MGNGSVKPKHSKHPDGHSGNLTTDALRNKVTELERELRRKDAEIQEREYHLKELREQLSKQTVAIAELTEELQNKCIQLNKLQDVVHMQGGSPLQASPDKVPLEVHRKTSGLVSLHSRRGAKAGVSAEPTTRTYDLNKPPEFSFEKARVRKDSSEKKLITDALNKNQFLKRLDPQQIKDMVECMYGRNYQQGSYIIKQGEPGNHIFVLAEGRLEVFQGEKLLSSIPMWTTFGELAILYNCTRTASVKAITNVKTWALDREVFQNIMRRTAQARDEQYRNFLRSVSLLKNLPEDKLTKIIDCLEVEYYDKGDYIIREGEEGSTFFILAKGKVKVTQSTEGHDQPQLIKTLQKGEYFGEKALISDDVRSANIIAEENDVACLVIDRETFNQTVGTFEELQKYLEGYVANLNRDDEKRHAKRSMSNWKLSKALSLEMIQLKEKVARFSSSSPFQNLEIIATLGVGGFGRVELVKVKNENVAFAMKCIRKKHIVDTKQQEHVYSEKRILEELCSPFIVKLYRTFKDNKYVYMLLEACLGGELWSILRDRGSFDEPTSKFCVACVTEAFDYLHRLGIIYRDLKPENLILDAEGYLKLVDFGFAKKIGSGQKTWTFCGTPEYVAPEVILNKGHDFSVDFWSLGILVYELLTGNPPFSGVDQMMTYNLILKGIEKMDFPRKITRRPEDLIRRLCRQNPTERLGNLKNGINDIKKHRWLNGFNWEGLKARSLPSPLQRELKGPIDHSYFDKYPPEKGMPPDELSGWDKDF
The procedure:
as §1

The target in the next assay is T3, RSK4 (Homo sapiens, UniProt Q9UK32).
T3 construct: made in house; host or cells: Sf9 insect cells (baculovirus)
The protocol: as §1

These results are taken from patent EP2047849A1 (KTB Tumorforschungsgesellschaft mbH, priority 2007, dated 2009).

T3 sequence (Q9UK32 whole entry): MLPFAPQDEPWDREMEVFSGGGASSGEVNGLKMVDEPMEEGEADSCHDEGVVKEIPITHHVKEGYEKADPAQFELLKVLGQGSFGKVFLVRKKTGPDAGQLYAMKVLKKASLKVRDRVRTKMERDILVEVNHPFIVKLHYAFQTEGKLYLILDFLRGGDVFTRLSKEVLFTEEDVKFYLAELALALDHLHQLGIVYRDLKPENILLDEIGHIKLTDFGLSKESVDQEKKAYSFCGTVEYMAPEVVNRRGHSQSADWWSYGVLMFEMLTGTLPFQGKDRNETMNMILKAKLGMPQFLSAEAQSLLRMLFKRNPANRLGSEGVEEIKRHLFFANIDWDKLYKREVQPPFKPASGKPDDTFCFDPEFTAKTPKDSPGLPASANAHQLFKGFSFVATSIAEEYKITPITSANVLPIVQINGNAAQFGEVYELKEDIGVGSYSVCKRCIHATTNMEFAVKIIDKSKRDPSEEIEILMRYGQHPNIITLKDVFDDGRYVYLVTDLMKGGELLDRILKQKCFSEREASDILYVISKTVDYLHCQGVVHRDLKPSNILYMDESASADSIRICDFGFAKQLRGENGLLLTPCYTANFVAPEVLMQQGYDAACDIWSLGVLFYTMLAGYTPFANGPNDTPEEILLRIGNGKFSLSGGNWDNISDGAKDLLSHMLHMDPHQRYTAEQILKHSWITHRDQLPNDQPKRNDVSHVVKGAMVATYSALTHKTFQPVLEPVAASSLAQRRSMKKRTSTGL

One may read the IC50 as the concentration at which inhibition is half-maximal. Regarding `COc1ccc2[nH]c3c(c4c(c5c6cc(OC)ccc6n(C)c35)C(=O)NC4=O)c2c1` [PQ-013, 6,7,12,13-Tetrahydro-3,9-dimethoxy-12-methyl-5,7 dioxo-5H-indolo [2,3-a] pyrrolo [3,4-c]-carbazole], the values for the IC50 at FLT3 wt, at PRKG2 and on RSK4 were 4.6 nM, 67 nM and 78 nM, respectively.
